Assay results taken from article PMC12543283, “TastepepAI: An artificial intelligence platform for taste peptide de novo design” (PLOS Computational Biology, 2025).
Ends that are not written are not given here.

Experiments:
[1] = Electronic tongue analysis (Taste-Sensing System SA 402B); set-up: unit not given here; conditions: reference solution 30 mM KCl + 0.3 mM tartaric acid as baseline, first measurement excluded; for Umami: sensor AAE; for Umami / Bitter / Sweet: detection threshold 0, room temperature; for Umami / Bitter / Sour / Salty: four replicates; for Sour: detection threshold -13, room temperature; for Salty: detection threshold -6, room temperature; for Sweet: measured five times
Procedure: Taste characteristics were analyzed using the electronic tongue system E-tongue (Taste-Sensing System SA 402B, Intelligent Sensor Technology Co. Ltd., Japan). The system was equipped with five specific sensor probes for detecting sourness (CA0), saltiness (CT0), bitterness (C00), sweetness (GL1), and umami (AAE). Samples were tested at concentrations of 0.1 mg/mL and 1.0 mg/mL. Prior to experiments, sensors were activated by immersion in a reference solution (30 mM KCl and 0.3 mM tartaric acid) for 24 h. A 30 min self-diagnostic procedure was performed before each measurement to ensure data accuracy. The reference solution served both as a cleaning solution and standard solution for taste signal calibration. According to the manufacturer’s instructions, using the reference solution as baseline, the detection thresholds were set at −13 for sourness, −6 for saltiness, and 0 for other taste modalities. Two cleaning solutions were employed for electrode maintenance: (1) 30% ethanol solution containing 100 mM HCl for negative charge reference electrodes, and (2) 30% ethanol solution containing 100 mM KCl and 10 mM KOH for positive charge reference electrodes. All taste measurements were performed at room temperature with four replicates, except for sweetness which was measured five times. The first measurement data were excluded from analysis.

[2] = tested on: human bronchial epithelial cells (BEAS-2B)
[3] = tested on: human embryonic kidney cells (HEK293T)
[4] = tested on: human pancreatic ductal epithelial cells (HPNE)
[5] = tested on: human umbilical vein endothelial cells (HUVEC)

Row | Substance | Umami ([1]; peptide 0.1 mg/mL) | Umami ([1]; peptide 1 mg/mL) | Bitter ([1]; sensor C00, peptide 0.1 mg/mL) | Bitter ([1]; sensor C00, peptide 1 mg/mL) | Sour ([1]; sensor CA0, peptide 0.1 mg/mL) | Sour ([1]; sensor CA0, peptide 1 mg/mL) | Salty ([1]; sensor CT0, peptide 0.1 mg/mL) | Salty ([1]; sensor CT0, peptide 1 mg/mL) | Sweet ([1]; sensor GL1, peptide 0.1 mg/mL) | Sweet ([1]; sensor GL1, peptide 1 mg/mL) | Average cell viability, BEAS-2B [2] | Cell viability, BEAS-2B, Data1 [2] | Cell viability, BEAS-2B, Data2 [2] | Cell viability, BEAS-2B, Data3 [2] | Average cell viability, HEK293T [3] | Cell viability, HEK293T, Data1 [3] | Cell viability, HEK293T, Data2 [3] | Cell viability, HEK293T, Data3 [3] | Average cell viability, HPNE [4] | Cell viability, HPNE, Data1 [4] | also measured
1 | DFKEELPK [TaPep42] | 0.30 | -6.40 | 7.41 | 2.96 | -0.03 | 16.30 | -15.26 | 15.72 | 3.04 | -6.66 | 106.12 | 95.21 | 103.99 | 119.14 | 100.35 | 101.45 | 95.30 | 104.29 | 106.29 | 109.92 | Cell viability, HPNE, Data2 [4]: 101.63; Cell viability, HPNE, Data3 [4]: 107.32; Average cell viability, HUVEC [5]: 100.96; Cell viability, HUVEC, Data1 [5]: 109.77; Cell viability, HUVEC, Data2 [5]: 97.95; Cell viability, HUVEC, Data3 [5]: 95.16
2 | DQEPVE [TaPep44] | 0.51 | -6.35 | 7.74 | 3.13 | -0.62 | 14.96 | -19.30 | 10.03 | 3.94 | -11.10 | 101.53 | 108.18 | 97.51 | 98.90 | 102.43 | 105.71 | 98.14 | 103.44 | 105.06 | 112.51 | Cell viability, HPNE, Data2 [4]: 118.30; Cell viability, HPNE, Data3 [4]: 84.36; Average cell viability, HUVEC [5]: 109.31; Cell viability, HUVEC, Data1 [5]: 108.41; Cell viability, HUVEC, Data2 [5]: 112.00; Cell viability, HUVEC, Data3 [5]: 107.53
3 | DQKVLA [TaPep3] | 2.16 | -4.90 | 7.84 | 2.95 | -4.64 | 12.21 | -20.13 | 13.20 | 7.95 | -6.65 | 108.77 | 109.77 | 102.49 | 114.06 | 94.20 | 93.79 | 84.04 | 104.76 | 93.24 | 97.04 | Cell viability, HPNE, Data2 [4]: 98.74; Cell viability, HPNE, Data3 [4]: 83.96; Average cell viability, HUVEC [5]: 98.83; Cell viability, HUVEC, Data1 [5]: 114.40; Cell viability, HUVEC, Data2 [5]: 89.41; Cell viability, HUVEC, Data3 [5]: 92.68
4 | EDGPHGD [TaPep45] | 0.96 | -5.11 | 7.77 | 4.03 | -1.77 | 12.61 | -19.03 | 9.35 | 4.54 | -4.05 | 94.75 | 89.83 | 99.50 | 94.92 | 97.35 | 98.99 | 96.25 | 96.81 | 101.66 | 107.42 | Cell viability, HPNE, Data2 [4]: 100.73; Cell viability, HPNE, Data3 [4]: 96.84; Average cell viability, HUVEC [5]: 98.64; Cell viability, HUVEC, Data1 [5]: 103.46; Cell viability, HUVEC, Data2 [5]: 90.77; Cell viability, HUVEC, Data3 [5]: 101.70
5 | EEVPITD [TaPep46] | 1.60 | -4.41 | 7.55 | 4.18 | -3.21 | 10.78 | -21.33 | 4.55 | 6.32 | -3.59 | 111.37 | 117.25 | 103.29 | 113.56 | 100.85 | 99.94 | 100.60 | 102.02 | 104.39 | 107.62 | Cell viability, HPNE, Data2 [4]: 107.82; Cell viability, HPNE, Data3 [4]: 97.74; Average cell viability, HUVEC [5]: 101.12; Cell viability, HUVEC, Data1 [5]: 105.61; Cell viability, HUVEC, Data2 [5]: 97.55; Cell viability, HUVEC, Data3 [5]: 100.19
